Experimental data published in patent US20100028366A1, “SYNERGISTIC EFFECT BETWEEN A […] AND ANOTHER OXIDATIVE INDUCING SYSTEM FOR TREATING TUMORS” (priority 2005, published 2010).

Assays:
W&Wlis cells [1] = assay: Cell viability analysis by MTT; assay type: cell-based, canine
Method: The mitochondrial enzymatic activity as indicative of cell viability was determined by means of using tetrazolium salts. In this assay 10^5 cells/test tube (culture test tubes with a flat side and screw-on cap to prevent the exit of HCN; Nunc) or 10^4 cells/well of 24-well plates closed with parafilm were seeded. After 24 hours of incubation fresh culture medium supplemented with the concentrations of linamarin (between 50 and 500 μg/ml) and glucose oxidase (5 mEU/ml) necessary for each experiment was added. In the assays in which it applied, the medium was supplemented with N-acetyl cysteine (10 mM), 1,5-isoquinolinediol (300 μM) or Z-VAD-fmk (100 μM). After the time stipulated in each experiment (between 12 and 96 hours), the culture medium was removed and fresh medium with 200 μg/mL of MTT (3-[4,5-dimethylthiazo-2-yl]-2,5-diphenyl tetrazolium bromide) was added. After 1.5 hours of incubation, the medium was removed and 3 ml (for the test tubes) or 1 ml (for the 24-well plates) of dimethyl sulfoxide was added to dissolve the formazan. After 10 minutes, the absorbance of the samples at 540 nm was determined. MTT is a tetrazolium salt soluble in aqueous medium (yellow) which is transformed by the mitochondrial dehydrogenases in formazan, an insoluble compound in aqueous medium (purple).

W&Wlis tumors = assay: Xenotransplant model, W&Wlis tumors in immunodeficient mice; assay type: in vivo; conditions: intratumoral
Method: In addition, a dose range for linamarin was evaluated in immunodeficient (nude) mice weighing 20 grams, inoculated with W&W tumor cells which stably expressed linamarase (W&Wlis). When the tumor reached an approximate size of 50 mm^3, the mice were treated with a daily dose of intratumoral linamarin at different concentrations (0.5; 0.35; 0.25 or 0.10 mg lin/g of weight of the animal).
Another approach carried out for the invention was the use of adenoviruses carrying the linamarase gene (adenolis) in W&W cell tumors induced in immunodeficient mice. 10^6 cells were subcutaneously inoculated in both flanks in mice (n=18). Part of the animals (n=8) received W&Wlis cells which already expressed linamarase, while others (n=10) were inoculated with W&W cells and only when the tumor had developed was it locally infected with adenolis. The animals inoculated with W&Wlis were treated daily with 0.25 mg lin and 0.1 EU GO/g in the largest tumor at the beginning of treatment (approximately 50 mm^3) (FIGS. 7G and 7H). The animals showing W&W tumors were treated with infection cycles with 10^9 IU of adenolis, followed by a two-day treatment with 0.25 mg lin and 0.1 EU GO/g (FIGS. 7I and 7J). The progression of the tumors was evaluated every two days.
Immunodeficient (nude strain), athymic mice weighing approximately 20 grams and 2 months old were used. They were inoculated with 1-2×10^6 cells (W&W or W&Wlis) subcutaneously in both flanks of the mice by means of an injection with a volume of 50 μl in complete PBS (supplemented with calcium and magnesium ions) with 0.1% glucose. The size of the tumors (pi π/6×height×width×length) was measured with a calibrator.
A large group of mice (n=8) were inoculated with 1-2×10^6 W&Wlis cells as previously described. When the tumors reached a mean size of 30-50 mm^3, the tumors of one flank were treated daily with 0.25 mg of linamarin and 0.1 EU of glucose oxidase/g of weight of the animal. When the untreated tumors reached a size of about 2000 mm^3 the animals were sacrificed and it was considered the end of treatment. The data was analyzed statistically by Student's t test, considering a level of significance of 5%.

W&Wlis cells [2] = assay: Determination of the extracellular peroxide concentration; assay type: cell-based, canine; conditions: 48 hours; 0.5 mg/ml of linamarin and/or 5 mEU/ml of glucose oxidase; control approximately 20 μM
Method: The H2O2 levels (FIG. 3B) produced extracellularly in the combined therapy were further studied in the invention. To do so, the amount of H2O2 present in the culture medium of W&Wlis cells at 48 hours in a treatment with 0.5 mg/ml of linamarin, in the presence of 5 mEU/ml of glucose oxidase or in the combination of both treatments, was analyzed although positive results were also obtained using other concentrations.
The samples to be analyzed were diluted in 1 ml of 0.1 M phosphate buffer pH 7.4. Then 3.7 EU/ml of peroxidase (Sigma-Aldrich, St. Louis, USA) and 0.1 mg/ml of ortho-dianisidine (Sigma-Aldrich, St. Louis, USA) were added. The samples were incubated at room temperature for 30 minutes and absorbances at 436 nm were determined. The H2O2 concentration was obtained by interpolation of the data obtained in a standard line performed with increasing concentrations of H2O2.

W&Wlis cells [3] = assay: Measurement of intracellular ATP; assay type: cell-based, canine; conditions: linamarin (500 μg/ml) and/or glucose oxidase (5 mEU/ml), over time, versus untreated cells
Method: The levels of intracellular energy in the form of ATP decrease when a blockage of the mitochondrial electron transport chain occurs since it is the essential source of obtaining energy of the cells. […] This effect is due to the fact that the maximum H2O2 production by glucose oxidase occurs at short times because the cells have the ability of detoxifying the peroxide and due to the fact that glucose oxidase is inactivated over time by the serum proteins.
10^5 W&Wlis cells were seeded in test tubes with a screw-on cap and flat side (Nunc). After 24 hours, the medium was changed, adding linamarin (500 μg/ml) and glucose oxidase (5 mEU/ml) where appropriate. After 4, 8, 12, 24, 48 or 72 hours, the cells were centrifuged and processed following the instructions of the ATP Bioluminescence Assay Kit CLS II, of Roche Applied Science. The luminescence was analyzed with a Monolight 2010 luminometer (Analytical Luminescence Laboratory, San Diego) and expressed in relative light units (RLU).

GB-LP-1 cells = assay: Survival by MTT of GB-LP-1 explant cells infected with adenolis; assay type: cell-based, human; conditions: 500 μg/ml linamarin; even at MOI: 1
Method: The behavior of the lis/lin therapy in one of the explants (GB-LP-1) was additionally analyzed. These cells were infected with adenolis (MOI: 0, 1, 12, 100 and 500) and the survival and production of cyanide after the addition of 500 μg/ml linamarin (FIGS. 6G and 6H, respectively) were studied.
10^5 cells (W&W and patient explants) were seeded in test tubes with a flat side and screw-on cap (Nunc), or 5×10^4 cells were seeded on cover slips in 24-well plates and were simultaneously infected with adenolis (Crucell) at different multiplicities of infection (MOI: 0; 0.2; 1; 10; 100 or 500). For the cells seeded in test tubes, the medium was changed after 24 hours adding 0.5 mg/ml of linamarin where appropriate. A cell viability assay was conducted with MTT at 96 hours after the addition of linamarin. 48 hours after infection the cells seeded in the cover slips were processed to perform immunofluorescence to detect linamarase.

## CC(C)(C#N)O[C@@H]1O[C@H](CO)[C@@H](O)[C@H](O)[C@H]1O [lin, 2-hydroxy-isobutyronitrile-β-D-glucopyranoside]
W&Wlis cells [1]; 10 mM N-acetyl cysteine (NAC) in the medium
  effect of NAC addition on death in the cell viability assay by MTT: did not cause any effect
W&Wlis cells [1]; 96 hours, linamarin 200 to 500 μg/ml, without GO
  cell survival by MTT: drastic reduction of the survival
W&Wlis cells [1]; linamarin alone, or combined therapy at 500 μg/ml linamarin with 5 mEU/ml glucose oxidase
  time after which cell viability begins to decrease (MTT): 48 h
W&Wlis tumors; 0.1 mg lin/g daily, n=4
  therapeutic effect on tumor growth: no therapeutic effect
W&Wlis tumors; 0.25 mg lin/g daily, after the tenth day of treatment, p=0.05, n=6
  therapeutic effect on tumor growth: significant reduction of the growth of the treated tumor
W&Wlis tumors; 0.35 mg lin/g daily, fifth day of treatment
  death of animals: death of three of the four animals
W&Wlis tumors; 0.5 mg lin/g daily, between the fourth and fifth day of treatment
  death of animals: all the animals
W&Wlis cells [2]
  extracellular H2O2 concentration in the culture medium: did not cause significant variations
W&Wlis cells [3]
  intracellular ATP levels: progressive and rapid depletion of ATP which becomes almost complete after 48 hours
GB-LP-1 cells
  sensitivity of adenolis-infected cells to linamarin (survival): very sensitive to treatment with linamarin
